The text below walks through data of ChEMBL document CHEMBL5113477, “Membrane acting Povarov-Doebner derived compounds potently disperse preformed multidrug resistant Gram-positive bacterial biofilms” (Eur J Med Chem, 2022).

The structures appear in SMILES notation. In brackets after ≈: the same amount, converted by molar mass.

Broadly, the MIC is the least concentration at which growth counts as inhibited. In general, MBC refers to the lowest tested concentration that kills the bacteria rather than only halting them.

What all share (type): functional
Experiment [1] concerns Enterococcus faecium. Description: Antibacterial activity against vancomycin-resistant Enterococcus faecium ATCC 700221 assessed as reduction in visible bacterial growth incubated for 18 to 20 hrs by CLSI based broth microdilution analysis. Particulars: time 18-20 hrs. (In broth dilution the organism is exposed to a series of concentrations in liquid medium.)
The subject of a further experiment is Listeria monocytogenes. Put plainly: Antibacterial activity against Listeria monocytogenes ATCC 19115 assessed as reduction in visible bacterial growth incubated for 18 to 20 hrs by CLSI based broth microdilution analysis. The note with it: time 18-20 hrs.
Experiment [2] relates to Staphylococcus aureus. Description: Antibacterial activity against Staphylococcus aureus ATCC 25923 assessed as reduction in visible bacterial growth incubated for 18 to 20 hrs by CLSI based broth microdilution analysis. The note with it: time 18-20 hrs.
Experiment [3] deals with Enterococcus faecalis. Description: Antibacterial activity against Enterococcus faecalis ATCC 29212 assessed as reduction in visible bacterial growth incubated for 18 to 20 hrs by CLSI based broth microdilution analysis. The note with it: time 18-20 hrs.
The test system of experiment [4] is Staphylococcus aureus. Description: Antibacterial activity against methicillin-resistant Staphylococcus aureus USA 300 assessed as reduction in visible bacterial growth incubated for 18 to 20 hrs by CLSI based broth microdilution analysis. The note with it: time 18-20 hrs.
For experiment [5], the system named is Staphylococcus aureus. Description: Antibacterial activity against methicillin-resistant Staphylococcus aureus ATCC 33592 assessed as reduction in visible bacterial growth incubated for 18 to 20 hrs by CLSI based broth microdilution analysis. Particulars: time 18-20 hrs.
In experiment [6] the test system is Enterococcus faecalis. Description: Antibacterial activity against vancomycin-resistant Enterococcus faecalis ATCC 51575 assessed as reduction in visible bacterial growth incubated for 18 to 20 hrs by CLSI based broth microdilution analysis. Particulars: time 18-20 hrs.
For experiment [7], the system named is Staphylococcus aureus. Description: Antibacterial activity against methicillin-resistant Staphylococcus aureus USA 300 (ARLG 1663) assessed as reduction in visible bacterial growth incubated for 18 to 20 hrs by CLSI based broth microdilution analysis. Particulars: time 18-20 hrs.
Experiment [8] relates to Staphylococcus aureus. Put plainly: Antibacterial activity against methicillin-resistant Staphylococcus aureus USA 300 (ARLG 1570) assessed as reduction in visible bacterial growth incubated for 18 to 20 hrs by CLSI based broth microdilution analysis. The note with it: time 18-20 hrs.
Experiment [9] deals with Staphylococcus aureus. Put plainly: Antibacterial activity against methicillin-resistant Staphylococcus aureus USA 300 (ARLG 1649) assessed as reduction in visible bacterial growth incubated for 18 to 20 hrs by CLSI based broth microdilution analysis. The note with it: time 18-20 hrs.
For experiment [10], the system named is Staphylococcus aureus. Put plainly: Antibacterial activity against methicillin-resistant Staphylococcus aureus USA 300 (ARLG 1665) assessed as reduction in visible bacterial growth incubated for 18 to 20 hrs by CLSI based broth microdilution analysis. The note with it: time 18-20 hrs.
The test system of experiment [11] is Staphylococcus aureus. Put plainly: Antibacterial activity against methicillin-resistant Staphylococcus aureus USA 300 (ARLG 1567) assessed as reduction in visible bacterial growth incubated for 18 to 20 hrs by CLSI based broth microdilution analysis. The note with it: time 18-20 hrs.
Experiment [12] deals with Staphylococcus aureus. Description: Antibacterial activity against methicillin-resistant Staphylococcus aureus USA 300 (ARLG 1644) assessed as reduction in visible bacterial growth incubated for 18 to 20 hrs by CLSI based broth microdilution analysis. The note with it: time 18-20 hrs.
The subject of experiment [13] is Staphylococcus aureus. Description: Antibacterial activity against methicillin-resistant Staphylococcus aureus USA 300 (ARLG 1568) assessed as reduction in visible bacterial growth incubated for 18 to 20 hrs by CLSI based broth microdilution analysis. The note with it: time 18-20 hrs.
In experiment [14] the test system is Staphylococcus aureus. Description: Antibacterial activity against methicillin-resistant Staphylococcus aureus USA 300 (ARLG 1561) assessed as reduction in visible bacterial growth incubated for 18 to 20 hrs by CLSI based broth microdilution analysis. Particulars: time 18-20 hrs.
In experiment [15] the test system is Staphylococcus aureus. Description: Antibacterial activity against methicillin-resistant Staphylococcus aureus USA 300 (ARLG 1569) assessed as reduction in visible bacterial growth incubated for 18 to 20 hrs by CLSI based broth microdilution analysis. The note with it: time 18-20 hrs.
Experiment [16] concerns Staphylococcus aureus. Put plainly: Antibiofilm activity against methicillin-resistant Staphylococcus aureus USA 300 in TSB broth assessed as dispersal of glucose-induced biofilm preincubated with glucose for 48 hrs followed by compound addition and measured after 24 hrs by crystal violet staining based analysis.
The subject of experiment [17] is Enterococcus faecium. Description: Antibiofilm activity against vancomycin-resistant Enterococcus faecium ATCC 700221 in TSB broth assessed as dispersal of glucose-induced biofilm preincubated with glucose for 48 hrs followed by compound addition and measured after 24 hrs by crystal violet staining based analysis.
The subject of experiment [18] is Enterococcus faecalis. Description: Antibiofilm activity against vancomycin-resistant Enterococcus faecalis ATCC 51575 in TSB broth assessed as dispersal of glucose-induced biofilm preincubated with glucose for 48 hrs followed by compound addition and measured after 24 hrs by crystal violet staining based analysis.

Regarding `Oc1ccc([C@@H]2Nc3ccc(C(F)(F)F)cc3[C@H]3[C@@H]4CC[C@@H](C4)[C@H]32)cc1`, the MIC with Enterococcus faecium [1], in the experiment with Listeria monocytogenes, in the experiment on Staphylococcus aureus [2], with Enterococcus faecalis [3], in the experiment on Staphylococcus aureus [4] and in the experiment with Staphylococcus aureus [5] was 2 µg/mL (≈ 5.56 µM) throughout. Further, the MIC in the experiment on Enterococcus faecalis [6] stood at 2 µg/mL (≈ 5.56 µM).
In the case of `Oc1ccc([C@@H]2Nc3ccc(SC(F)(F)F)cc3[C@H]3[C@@H]4CC[C@@H](C4)[C@H]32)cc1`, the MIC in the experiment with Enterococcus faecium [1], with Listeria monocytogenes, with Staphylococcus aureus [2], in the experiment on Enterococcus faecalis [3], in the experiment on Staphylococcus aureus [4] and in the experiment on Staphylococcus aureus [5] was 2 µg/mL (≈ 5.11 µM) in each case. In the experiment on Enterococcus faecalis [6], the MIC came out at 2 µg/mL (≈ 5.11 µM).
`CC(=O)NC[C@H]1CN(c2ccc(N3CCOCC3)c(F)c2)C(=O)O1` [LINEZOLID]: the MBC is above 64 µg/mL in the experiment with Staphylococcus aureus [7]; 64 µg/mL (≈ 190 µM) in the experiment with Staphylococcus aureus [8]; above 128 µg/mL in the experiment with Enterococcus faecium [1]; above 64 µg/mL in the experiment with Staphylococcus aureus [9]; above 64 µg/mL with Staphylococcus aureus [10]; above 64 µg/mL in the experiment with Staphylococcus aureus [11]. Further, the MBC in the experiment with Staphylococcus aureus [2] is 64 µg/mL (≈ 190 µM); in the experiment with Enterococcus faecalis [3] it was 64 µg/mL (≈ 190 µM); with Staphylococcus aureus [4], 128 µg/mL (≈ 379 µM); in the experiment with Staphylococcus aureus [5] it was 64 µg/mL (≈ 190 µM); with Staphylococcus aureus [12], above 64 µg/mL; in the experiment on Staphylococcus aureus [13], above 64 µg/mL. Moreover, the MBC in the experiment on Staphylococcus aureus [14] is 64 µg/mL (≈ 190 µM); in the experiment with Staphylococcus aureus [15], 64 µg/mL (≈ 190 µM); in the experiment with Enterococcus faecalis [6], above 128 µg/mL. In addition, the MIC is 1 µg/mL (≈ 2.96 µM) in the experiment with Staphylococcus aureus [7]; 1 µg/mL (≈ 2.96 µM) with Staphylococcus aureus [8]; 1 µg/mL (≈ 2.96 µM) with Enterococcus faecium [1]; 2 µg/mL (≈ 5.93 µM) with Listeria monocytogenes; 1 µg/mL (≈ 2.96 µM) with Staphylococcus aureus [9]; 1 µg/mL (≈ 2.96 µM) with Staphylococcus aureus [10]. Moreover, the MIC with Staphylococcus aureus [11], with Staphylococcus aureus [12], in the experiment with Staphylococcus aureus [13], in the experiment on Staphylococcus aureus [14] and in the experiment with Staphylococcus aureus [15] was 1 µg/mL (≈ 2.96 µM) throughout.
Regarding `Oc1cccc([C@@H]2Nc3ccc(S(F)(F)(F)(F)F)cc3[C@H]3[C@@H]4CC[C@@H](C4)[C@H]32)c1`, the MIC with Staphylococcus aureus [2] was 4 µg/mL (≈ 9.58 µM).
Still for that read-out and setting: in the case of `Oc1ccc([C@@H]2Nc3c(OC(F)(F)F)cccc3[C@H]3[C@@H]4CC[C@@H](C4)[C@H]32)cc1` it was 4 µg/mL (≈ 10.7 µM); in that of `Oc1ccc([C@@H]2Nc3c(ccc(Cl)c3Cl)[C@H]3[C@@H]4CC[C@@H](C4)[C@H]32)cc1`, 4 µg/mL (≈ 11.1 µM).
On to `Oc1ccc([C@@H]2Nc3c(SC(F)(F)F)cccc3[C@H]3[C@@H]4CC[C@@H](C4)[C@H]32)cc1`, for which, in the experiment on Staphylococcus aureus [2], the minimum inhibitory concentration (MIC) is above 16 µg/mL.
Same read-out and setting: to `Oc1ccc([C@@H]2Nc3ccc(F)cc3[C@H]3[C@@H]4CC[C@@H](C4)[C@H]32)cc1` belongs above 16 µg/mL; to `FS(F)(F)(F)(F)c1ccc2c(c1)[C@H]1[C@@H]3CC[C@@H](C3)[C@H]1[C@H](c1ccccc1)N2`, above 16 µg/mL; to `Oc1ccc(-c2nc3ccc(S(F)(F)(F)(F)F)cc3c3c2[C@H]2CC[C@@H]3C2)cc1`, above 16 µg/mL.
Same read-out and setting: to `COc1ccc2c(c1)[C@H]1[C@@H]3CC[C@@H](C3)[C@H]1[C@H](c1ccc(O)cc1)N2` belongs 4 µg/mL (≈ 12.4 µM); to `Oc1ccc([C@@H]2Nc3ccc(OC(F)F)cc3[C@H]3[C@@H]4CC[C@@H](C4)[C@H]32)cc1`, 8 µg/mL (≈ 22.4 µM).
On to `Oc1c(Cl)cc(Cl)cc1Sc1cc(Cl)cc(Cl)c1O` [BITHIONOL], for which the MBEC in the experiment with Staphylococcus aureus [16], in the experiment with Enterococcus faecium [17] and in the experiment with Enterococcus faecalis [18] was 8 µg/mL in each case.
Take `CSc1ccc2c(c1)[C@H]1[C@@H]3CC[C@@H](C3)[C@H]1[C@H](c1ccc(O)cc1)N2`: the MIC in the experiment on Staphylococcus aureus [2] is above 16 µg/mL.
The same measure, in the same setting: in the case of `Oc1ccc([C@@H]2Nc3ccc(OC(F)(F)F)cc3[C@H]3[C@@H]4CC[C@@H](C4)[C@H]32)cc1` it was above 16 µg/mL.
Consider `CN[C@H](CC(C)C)C(=O)N[C@H]1C(=O)N[C@@H](CC(N)=O)C(=O)N[C@H]2C(=O)N[C@H]3C(=O)N[C@H](C(=O)N[C@H](C(=O)O)c4cc(O)cc(O)c4-c4cc3ccc4O)[C@H](O)c3ccc(c(Cl)c3)Oc3cc2cc(c3O[C@@H]2O[C@H](CO)[C@@H](O)[C@H](O)[C@H]2O[C@H]2C[C@](C)(N)[C@H](O)[C@H](C)O2)Oc2ccc(cc2Cl)[C@H]1O` [VANCOMYCIN], for which the MBC in the experiment on Staphylococcus aureus [7] amounted to 1 µg/mL (≈ 0.69 µM); with Staphylococcus aureus [8], 2 µg/mL (≈ 1.38 µM); in the experiment on Listeria monocytogenes, 2 µg/mL (≈ 1.38 µM); in the experiment on Staphylococcus aureus [9], 1 µg/mL (≈ 0.69 µM); in the experiment with Staphylococcus aureus [10], 8 µg/mL (≈ 5.52 µM); with Staphylococcus aureus [11], 1 µg/mL (≈ 0.69 µM). The MBC in the experiment on Staphylococcus aureus [2] was determined as 2 µg/mL (≈ 1.38 µM); in the experiment with Enterococcus faecalis [3], 2 µg/mL (≈ 1.38 µM); in the experiment on Staphylococcus aureus [4], 2 µg/mL (≈ 1.38 µM); with Staphylococcus aureus [5] it was 1 µg/mL (≈ 0.69 µM); in the experiment on Staphylococcus aureus [12], 1 µg/mL (≈ 0.69 µM); with Staphylococcus aureus [13], 1 µg/mL (≈ 0.69 µM). Besides, the MBC in the experiment with Staphylococcus aureus [14] and in the experiment on Staphylococcus aureus [15] was 1 µg/mL (≈ 0.69 µM) in each case. Besides, the MIC in the experiment on Listeria monocytogenes worked out at 1 µg/mL (≈ 0.69 µM); in the experiment with Enterococcus faecalis [3] it was 2 µg/mL (≈ 1.38 µM).
`O=[N+]([O-])c1ccc(O)c2ncccc12` [NITROXOLINE]: the MBEC in the experiment with Staphylococcus aureus [16], with Enterococcus faecium [17] and in the experiment on Enterococcus faecalis [18] was 16 µg/mL throughout.
Turning to `Oc1ccccc1[C@@H]1Nc2ccc(S(F)(F)(F)(F)F)cc2[C@H]2[C@@H]3CC[C@@H](C3)[C@H]21`, the minimal inhibitory concentration (MIC) with Staphylococcus aureus [2] worked out at 4 µg/mL (≈ 9.58 µM).
On the same count and under the same terms, in the case of `Oc1cccc([C@@H]2Nc3ccc(SC(F)(F)F)cc3[C@H]3[C@@H]4CC[C@@H](C4)[C@H]32)c1` it was 4 µg/mL (≈ 10.2 µM); in that of `Oc1ccc([C@@H]2Nc3ccccc3[C@H]3[C@@H]4CC[C@@H](C4)[C@H]32)cc1`, above 16 µg/mL; in that of `Oc1ccc([C@@H]2Nc3cc(F)cc(F)c3[C@H]3[C@@H]4CC[C@@H](C4)[C@H]32)cc1`, 4 µg/mL (≈ 12.2 µM).
